Reference: the CheMixHub viscosity set

Assay: xn = mol fraction of the nth substance listed

C[N+](=O)[O-] + CCO
viscosity [mPa·s]
Conditions	293.15 K	298.15 K	303.15 K	313.15 K
101 kPa, x1 = 0.1074	–	0.9963	–	–
101 kPa, x1 = 0.2135	–	0.9148	–	–
101 kPa, x1 = 0.3174	–	0.84	–	–
101 kPa, x1 = 0.4199	–	0.777	–	–
101 kPa, x1 = 0.5202	–	0.7236	–	–
101 kPa, x1 = 0.6192	–	0.6847	–	–
101 kPa, x1 = 0.7167	–	0.6557	–	–
101 kPa, x1 = 0.8126	–	0.6418	–	–
101 kPa, x1 = 0.9071	–	0.637	–	–
101.33 kPa, x2 = 0.0501	0.625	–	0.553	0.501
101.33 kPa, x2 = 0.1001	0.609	–	0.538	0.486
101.33 kPa, x2 = 0.15	0.602	–	0.53	0.477
101.33 kPa, x2 = 0.2	0.601	–	0.527	0.472
101.33 kPa, x2 = 0.2501	0.604	–	0.527	0.471
101.33 kPa, x2 = 0.3001	0.612	–	0.531	0.472
101.33 kPa, x2 = 0.3502	0.622	–	0.538	0.476
101.33 kPa, x2 = 0.4008	0.636	–	0.547	0.482
101.33 kPa, x2 = 0.4501	0.653	–	0.561	0.491
101.33 kPa, x2 = 0.5001	0.672	–	0.577	0.502
101.33 kPa, x2 = 0.55	0.695	–	0.594	0.516
101.33 kPa, x2 = 0.6	0.72	–	0.612	0.531
101.33 kPa, x2 = 0.65	0.75	–	0.633	0.547
101.33 kPa, x2 = 0.7	0.785	–	0.665	0.569
101.33 kPa, x2 = 0.75	0.825	–	0.698	0.595
101.33 kPa, x2 = 0.8	0.872	–	0.732	0.625
101.33 kPa, x2 = 0.85	0.936	–	0.782	0.662
101.33 kPa, x2 = 0.9	1.006	–	0.835	0.705
101.33 kPa, x2 = 0.95	1.086	–	0.901	0.759

C[N+](=O)[O-] + CC(C)=O
298.15 K, 101 kPa
Conditions	viscosity [mPa·s]
x1 = 0.1326	0.356
x1 = 0.2566	0.3972
x1 = 0.3714	0.4352
x1 = 0.479	0.4701
x1 = 0.5797	0.5032
x1 = 0.6739	0.5325
x1 = 0.7631	0.5603
x1 = 0.8465	0.5855
x1 = 0.9257	0.6101

COc1ccc2cc([C@H](C)C(=O)O)ccc2c1 + CC#N
101 kPa
Conditions	viscosity [mPa·s]
297.93 K, x1 = 0.000702	0.3571
297.96 K, x1 = 0.000233	0.3546
298.01 K, x1 = 0.001151	0.3583
298.04 K, x1 = 0.001587	0.3603
298.07 K, x1 = 0.002732	0.364
301.61 K, x1 = 0.001151	0.3461
301.69 K, x1 = 0.000233	0.3425
301.69 K, x1 = 0.001587	0.3476
301.7 K, x1 = 0.000702	0.344
301.75 K, x1 = 0.002732	0.351
303.56 K, x1 = 0.001151	0.3398
303.58 K, x1 = 0.002732	0.3453
303.65 K, x1 = 0.000233	0.3359
303.66 K, x1 = 0.001587	0.342
303.69 K, x1 = 0.000702	0.3371
305.66 K, x1 = 0.000233	0.3303
305.66 K, x1 = 0.001151	0.3329
305.7 K, x1 = 0.002732	0.3376
305.71 K, x1 = 0.000702	0.331
305.71 K, x1 = 0.001587	0.3347
308.62 K, x1 = 0.001151	0.324
308.64 K, x1 = 0.001587	0.3252
308.71 K, x1 = 0.000233	0.3206
308.75 K, x1 = 0.002732	0.3279
308.76 K, x1 = 0.000702	0.322
311.62 K, x1 = 0.001151	0.3149
311.63 K, x1 = 0.001587	0.3163
311.68 K, x1 = 0.002732	0.3191
311.69 K, x1 = 0.000233	0.3119
311.72 K, x1 = 0.000702	0.3132

CCCCOC(=O)C(C)O (centres undefined) + CCCO
101 kPa, x1 = 0.8998
Conditions	viscosity [mPa·s]
303.15 K	2.685
313.15 K	2.075

c1ccc(Cc2ccccc2)cc1 + c1ccccc1
302.85 K, 101 kPa
Conditions	viscosity [mPa·s]
x1 = 0.113	0.733
x1 = 0.204	0.877
x1 = 0.288	1.026
x1 = 0.523	1.502
x1 = 0.686	1.873
x1 = 0.801	2.132
x1 = 0.893	2.342

CC(=O)c1ccc(C)cc1 + CC#N
308.15 K, 101 kPa
Conditions	viscosity [mPa·s]
x1 = 0.0872	0.3857
x1 = 0.1449	0.4411
x1 = 0.2088	0.5094
x1 = 0.2823	0.5871
x1 = 0.3756	0.6989
x1 = 0.4771	0.826
x1 = 0.6125	1.001
x1 = 0.7811	1.235
x1 = 0.9146	1.454

CCCCC(CC)COP(=O)(O)OCC(CC)CCCC (centres undefined) + Clc1ccccc1
viscosity [mPa·s], 101 kPa
Conditions	x1 = 0.0374	x1 = 0.0804	x1 = 0.1303	x1 = 0.1888	x1 = 0.2587	x1 = 0.3436	x1 = 0.4481	x1 = 0.5826	x1 = 0.7584
303.15 K	0.8898	1.127	1.45	1.903	2.556	3.531	5.039	7.539	11.9
313.15 K	0.766	0.9413	1.176	1.498	1.953	2.619	3.629	5.271	8.078
323.15 K	0.6693	0.7965	0.9633	1.187	1.497	1.939	2.595	3.637	5.374

CC(=O)c1ccc(C)cc1 + C=CC#N
308.15 K, 101 kPa
Conditions	viscosity [mPa·s]
x1 = 0.053	0.365
x1 = 0.1107	0.4026
x1 = 0.1749	0.4516
x1 = 0.2487	0.511
x1 = 0.3327	0.5909
x1 = 0.4237	0.684
x1 = 0.536	0.8136
x1 = 0.6679	0.9939
x1 = 0.8181	1.23
